Measurements reported in ChEMBL document CHEMBL3822358 (J Med Chem, 2016).
Converted amounts (≈) assume the structure as drawn. The source made the active and inactive calls. The calls are words filed in the database; no cut-off is given here.

Tests used:
[1] = biological target: Insulin-like growth factor 1 receptor (Homo sapiens, UniProt P08069)
Insulin receptor = Insulin receptor (Homo sapiens, UniProt P06213)
Description: Inhibition of human InsR using myelin basic protein as substrate and [gamma-33P]ATP measured after 1 hr

Rattus norvegicus [2] = experiment: AUC (0 to infinity) in CD rat at 3 mg/kg, iv by LC-MS/MS analysis; assay type: ADME, organism-based; set-up: dose 3 mg/kg, time infinity, route intravenous; conditions: in vivo
Rattus norvegicus [3] = experiment: Half life in CD rat at 3 mg/kg, iv by LC-MS/MS analysis; assay type: ADME, organism-based; conditions: in vivo
Rattus norvegicus [4] = experiment: Volume of distribution at steady state in CD rat at 3 mg/kg, iv by LC-MS/MS analysis; assay type: ADME, organism-based; conditions: in vivo
[5] = Cmax in CD rat at 10 mg/kg, po by LC-MS/MS analysis; assay type: ADME, organism-based; set-up: dose 10 mg/kg, route oral; conditions: in vivo
[6] = AUC (0 to infinity) in CD rat at 10 mg/kg, po by LC-MS/MS analysis; assay type: ADME, organism-based; set-up: dose 10 mg/kg, route oral, time infinity; conditions: in vivo
[7] = Tmax in CD rat at 10 mg/kg, po by LC-MS/MS analysis; assay type: ADME, organism-based; conditions: in vivo
[8] = Half life in CD rat at 10 mg/kg, po by LC-MS/MS analysis; assay type: ADME, organism-based; conditions: in vivo
[9] = Oral bioavailability in CD rat at 10 mg/kg by LC-MS/MS analysis; assay type: ADME, organism-based; conditions: in vivo
[10] = Cmax in mouse at 10 mg/kg, po by LC-MS/MS analysis; assay type: ADME, organism-based; set-up: dose 10 mg/kg, route oral; conditions: in vivo
[11] = AUC (0 to 24 hrs) in mouse at 10 mg/kg, po by LC-MS/MS analysis; assay type: ADME, organism-based; set-up: time < 24 hr, dose 10 mg/kg, route oral; conditions: in vivo
[12] = Half life in mouse at 10 mg/kg, po by LC-MS/MS analysis; assay type: ADME, organism-based; conditions: in vivo
[13] = biological target: T1, ALK tyrosine kinase receptor (Homo sapiens, UniProt Q9UM73); experiment: Inhibition of ALK phosphorylation in mouse xenografted with human KARPAS299 cells assessed as p-ALK level at 25 mg/kg, po administered as single dose measured after 10 hrs relative to 2 hrs vehicle-treated tumor; assay type: organism-based; set-up: scale not given: the % may be the effect or the level left; conditions: KARPAS-299
T1 sequence (Q9UM73 19-1620 limits assumed): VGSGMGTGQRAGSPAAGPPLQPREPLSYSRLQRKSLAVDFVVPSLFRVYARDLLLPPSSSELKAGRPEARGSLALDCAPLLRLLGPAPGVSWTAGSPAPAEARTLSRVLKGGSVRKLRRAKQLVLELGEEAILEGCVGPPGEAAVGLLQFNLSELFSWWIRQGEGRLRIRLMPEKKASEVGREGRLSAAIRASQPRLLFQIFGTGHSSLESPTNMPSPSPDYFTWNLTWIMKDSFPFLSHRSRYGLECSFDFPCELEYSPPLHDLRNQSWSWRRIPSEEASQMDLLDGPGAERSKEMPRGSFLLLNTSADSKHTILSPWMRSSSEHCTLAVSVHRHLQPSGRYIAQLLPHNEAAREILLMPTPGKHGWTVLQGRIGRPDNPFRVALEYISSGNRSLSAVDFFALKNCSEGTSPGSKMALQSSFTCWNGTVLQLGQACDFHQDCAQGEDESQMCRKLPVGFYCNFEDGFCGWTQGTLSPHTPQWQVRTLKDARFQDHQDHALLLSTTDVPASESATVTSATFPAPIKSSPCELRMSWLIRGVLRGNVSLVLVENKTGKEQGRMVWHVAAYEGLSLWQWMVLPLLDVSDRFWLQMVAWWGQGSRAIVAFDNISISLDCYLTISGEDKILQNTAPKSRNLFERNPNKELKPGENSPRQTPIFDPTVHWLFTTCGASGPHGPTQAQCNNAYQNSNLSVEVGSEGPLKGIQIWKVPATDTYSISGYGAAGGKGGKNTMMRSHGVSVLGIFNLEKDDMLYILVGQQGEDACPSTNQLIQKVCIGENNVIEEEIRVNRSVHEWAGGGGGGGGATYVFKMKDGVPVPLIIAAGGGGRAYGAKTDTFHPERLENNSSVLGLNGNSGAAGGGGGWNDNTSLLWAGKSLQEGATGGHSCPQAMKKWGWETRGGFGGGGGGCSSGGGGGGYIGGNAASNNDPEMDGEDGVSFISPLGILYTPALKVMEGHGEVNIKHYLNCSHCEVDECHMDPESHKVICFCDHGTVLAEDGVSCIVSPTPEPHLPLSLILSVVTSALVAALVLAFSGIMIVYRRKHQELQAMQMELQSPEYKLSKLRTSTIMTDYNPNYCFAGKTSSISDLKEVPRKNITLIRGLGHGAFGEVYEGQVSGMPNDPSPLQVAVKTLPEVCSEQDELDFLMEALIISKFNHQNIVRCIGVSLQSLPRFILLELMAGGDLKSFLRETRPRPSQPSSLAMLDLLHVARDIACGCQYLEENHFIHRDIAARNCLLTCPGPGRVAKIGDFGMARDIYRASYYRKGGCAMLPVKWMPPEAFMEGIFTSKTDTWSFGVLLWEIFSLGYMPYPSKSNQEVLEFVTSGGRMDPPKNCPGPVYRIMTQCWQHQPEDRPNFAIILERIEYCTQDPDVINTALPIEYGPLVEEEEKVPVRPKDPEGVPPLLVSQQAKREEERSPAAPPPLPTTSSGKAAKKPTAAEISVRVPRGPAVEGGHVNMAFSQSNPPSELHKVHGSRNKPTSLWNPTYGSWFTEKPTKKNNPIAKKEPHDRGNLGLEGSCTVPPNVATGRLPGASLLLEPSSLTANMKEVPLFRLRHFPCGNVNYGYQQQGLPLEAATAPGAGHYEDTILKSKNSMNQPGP

[14] = biological target: T1, ALK tyrosine kinase receptor; experiment: Inhibition of ALK phosphorylation in mouse xenografted with human KARPAS299 cells assessed as p-ALK level at 25 mg/kg, po administered as single dose measured after 16 hrs relative to 2 hrs vehicle-treated tumor; assay type: organism-based; set-up: scale not given: the % may be the effect or the level left; conditions: KARPAS-299
[15] = biological target: T1, ALK tyrosine kinase receptor; experiment: Inhibition of ALK phosphorylation in mouse xenografted with human KARPAS299 cells assessed as p-ALK level at 25 mg/kg, po administered as single dose measured after 24 hrs relative to 2 hrs vehicle-treated tumor; assay type: organism-based; set-up: scale not given: the % may be the effect or the level left; conditions: KARPAS-299
KARPAS-299 [16] = experiment: Antitumor activity against human KARPAS299 cells xenografted in SCID/beige mouse assessed as tumor growth inhibition administered orally once daily for 13 days relative to untreated control; assay type: functional, cell-based
KARPAS-299 [17] = experiment: Antitumor activity against human KARPAS299 cells expressing […] fusion protein xenografted in SCID/beige mouse assessed as tumor regression at 50 mg/kg, po administered once daily for 13 days; assay type: functional, organism-based
Mus musculus [18] = experiment: Toxicity in SCID/beige mouse xenografted with human KARPAS299 cells expressing […] fusion protein at 50 mg/kg, po administered once daily for 13 days; assay type: organism-based, KARPAS-299; conditions: in vivo, 312 h
NCI-H3122 = experiment: Antitumor activity against human NCI-H3122 cells expressing EML4-ALK fusion protein xenografted in SCID/beige mouse assessed as tumor regression compound administered as once-daily oral dose for 19 days; assay type: functional, cell-based
Mus musculus [19] = experiment: Toxicity in SCID/beige mouse xenografted with human NCI-H3122 cells assessed as body weight loss at 10 to 50 mg/kg, po administered once daily for 19 days relative to vehicle-treated control; assay type: organism-based; conditions: in vivo, 456 h
[20] = biological target: Hepatocyte growth factor receptor (Homo sapiens) (UniProt P08581); experiment: Inhibition of human c-Met using [KKKSPGEYVNIEFG as substrate and [gamma-33P]ATP up to 1 uM measured after 1 hr
[21] = biological target: Macrophage-stimulating protein receptor (Homo sapiens) (UniProt Q04912); experiment: Inhibition of human Ron using KKSRGDYMTMQIG as substrate and [gamma-33P]ATP measured up to 1 uM after 1 hr
Sequence of Macrophage-stimulating protein receptor (Homo sapiens) (Q04912 25-304 limits assumed): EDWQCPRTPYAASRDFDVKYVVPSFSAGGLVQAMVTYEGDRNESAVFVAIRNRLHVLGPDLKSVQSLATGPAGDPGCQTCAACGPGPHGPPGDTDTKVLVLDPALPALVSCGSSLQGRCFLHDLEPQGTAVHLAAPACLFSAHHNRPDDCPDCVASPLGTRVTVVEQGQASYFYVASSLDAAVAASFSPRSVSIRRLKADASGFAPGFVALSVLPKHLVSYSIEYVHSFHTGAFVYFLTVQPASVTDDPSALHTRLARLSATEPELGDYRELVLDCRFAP
Sequence of Macrophage-stimulating protein receptor (Homo sapiens) (Q04912 310-1400 limits assumed): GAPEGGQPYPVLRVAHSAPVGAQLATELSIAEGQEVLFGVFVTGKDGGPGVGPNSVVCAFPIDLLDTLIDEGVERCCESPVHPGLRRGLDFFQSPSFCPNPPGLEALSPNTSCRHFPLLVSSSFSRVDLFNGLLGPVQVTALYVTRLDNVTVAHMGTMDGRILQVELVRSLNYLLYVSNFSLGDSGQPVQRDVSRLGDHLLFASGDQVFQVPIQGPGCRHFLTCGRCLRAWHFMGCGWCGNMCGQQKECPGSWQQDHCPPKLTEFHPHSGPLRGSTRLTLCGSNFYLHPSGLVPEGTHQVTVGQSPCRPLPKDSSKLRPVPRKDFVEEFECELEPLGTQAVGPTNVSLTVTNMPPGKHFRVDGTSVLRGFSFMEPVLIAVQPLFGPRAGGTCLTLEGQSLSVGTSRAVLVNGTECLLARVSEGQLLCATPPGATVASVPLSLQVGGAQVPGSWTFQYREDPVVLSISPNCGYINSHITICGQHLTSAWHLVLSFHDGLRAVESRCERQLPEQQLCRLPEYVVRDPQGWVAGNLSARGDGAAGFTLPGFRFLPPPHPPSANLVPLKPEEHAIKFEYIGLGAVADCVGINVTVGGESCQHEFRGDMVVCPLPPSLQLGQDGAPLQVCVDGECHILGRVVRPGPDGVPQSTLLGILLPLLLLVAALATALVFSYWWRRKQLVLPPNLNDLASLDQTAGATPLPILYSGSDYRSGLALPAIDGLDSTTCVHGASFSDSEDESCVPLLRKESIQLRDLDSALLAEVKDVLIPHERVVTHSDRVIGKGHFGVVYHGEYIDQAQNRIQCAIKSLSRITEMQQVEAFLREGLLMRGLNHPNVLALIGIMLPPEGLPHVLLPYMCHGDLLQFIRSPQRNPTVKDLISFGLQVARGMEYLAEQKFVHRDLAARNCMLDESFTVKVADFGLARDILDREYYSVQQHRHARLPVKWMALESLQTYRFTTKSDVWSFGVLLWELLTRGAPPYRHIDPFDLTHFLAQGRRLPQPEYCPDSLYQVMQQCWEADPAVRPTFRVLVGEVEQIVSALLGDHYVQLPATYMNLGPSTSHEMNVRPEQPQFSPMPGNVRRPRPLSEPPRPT

Homo sapiens [22] = organism: Homo sapiens; experiment: Inhibition of human EML4/ALK F1174C/V mutant
Homo sapiens [23] = organism: Homo sapiens; experiment: Inhibition of human EML4/ALK I1171N mutant
Homo sapiens [24] = organism: Homo sapiens; experiment: Inhibition of human EML4/ALK […] mutant
[25] = Protein binding in human plasma; assay type: ADME, cell-free; conditions: read-out: PPB (converted)
[26] = Protein binding in rat plasma; assay type: ADME, cell-free; conditions: read-out: PPB (converted)
[27] = Protein binding in mouse plasma; assay type: ADME, cell-free; conditions: read-out: PPB (converted)
[28] = Aqueous solubility of the compound at physiological pH; assay type: physicochemical; conditions: buffer
[29] = Lipophilicity, logD of the compound at pH 7; assay type: physicochemical; conditions: buffer
cells [30] = conditions: Homo sapiens, KARPAS-299, 72 h
Description: Antiproliferative activity against human ALK-positive KARPAS299 cells assessed as reduction in cell viability measured after 72 hrs by CellTiter 96 aqueous one solution cell proliferation assay

cells [31] = conditions: Homo sapiens, U-937, 72 h
Description: Antiproliferative activity against human ALK-negative U937 cells assessed as reduction in cell viability measured after 72 hrs by CellTiter 96 aqueous one solution cell proliferation assay

animal or person [32] = conditions: Homo sapiens, KARPAS-299, po, 312 h, read-out: TGI
Description: Antitumor activity against human KARPAS299 cells expressing NMP-ALK fusion protein xenografted in SCID/beige mouse assessed as tumor growth inhibition at 10 mg/kg, po administered once daily for 13 days relative to untreated control

animal or person [33] = conditions: Homo sapiens, KARPAS-299, po, 312 h, read-out: TGI; remark: listed apart in the source
Description: Antitumor activity against human KARPAS299 cells expressing NMP-ALK fusion protein xenografted in SCID/beige mouse assessed as tumor growth inhibition at 25 mg/kg, po administered once daily for 13 days relative to untreated control

animal or person [34] = conditions: Homo sapiens, KARPAS-299, po, 312 h, read-out: TGI; remark: listed apart in the source
Description: Antitumor activity against human KARPAS299 cells expressing NMP-ALK fusion protein xenografted in SCID/beige mouse assessed as tumor growth inhibition at 50 mg/kg, po administered once daily for 13 days relative to untreated control

Sequence of Insulin receptor (P06213 28-758 limits assumed): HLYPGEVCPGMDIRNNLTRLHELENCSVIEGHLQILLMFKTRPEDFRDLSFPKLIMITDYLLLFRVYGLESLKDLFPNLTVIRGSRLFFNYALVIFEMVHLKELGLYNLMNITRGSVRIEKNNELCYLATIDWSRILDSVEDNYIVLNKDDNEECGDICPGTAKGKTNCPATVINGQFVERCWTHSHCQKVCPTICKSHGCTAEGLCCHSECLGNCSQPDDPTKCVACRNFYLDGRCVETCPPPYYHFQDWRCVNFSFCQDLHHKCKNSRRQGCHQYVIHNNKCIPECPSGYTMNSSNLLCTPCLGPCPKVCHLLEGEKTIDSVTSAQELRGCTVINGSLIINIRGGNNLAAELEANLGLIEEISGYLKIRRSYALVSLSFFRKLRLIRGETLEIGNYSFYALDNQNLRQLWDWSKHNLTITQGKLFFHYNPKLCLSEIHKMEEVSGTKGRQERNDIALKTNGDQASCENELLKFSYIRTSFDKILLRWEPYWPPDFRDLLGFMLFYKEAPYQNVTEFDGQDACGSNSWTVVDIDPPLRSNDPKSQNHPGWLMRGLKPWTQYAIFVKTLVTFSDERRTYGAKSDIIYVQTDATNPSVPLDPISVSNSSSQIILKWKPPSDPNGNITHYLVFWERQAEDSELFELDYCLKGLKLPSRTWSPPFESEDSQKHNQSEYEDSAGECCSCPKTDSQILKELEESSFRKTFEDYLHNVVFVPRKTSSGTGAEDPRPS
Sequence of Insulin receptor (P06213 763-1382 limits assumed): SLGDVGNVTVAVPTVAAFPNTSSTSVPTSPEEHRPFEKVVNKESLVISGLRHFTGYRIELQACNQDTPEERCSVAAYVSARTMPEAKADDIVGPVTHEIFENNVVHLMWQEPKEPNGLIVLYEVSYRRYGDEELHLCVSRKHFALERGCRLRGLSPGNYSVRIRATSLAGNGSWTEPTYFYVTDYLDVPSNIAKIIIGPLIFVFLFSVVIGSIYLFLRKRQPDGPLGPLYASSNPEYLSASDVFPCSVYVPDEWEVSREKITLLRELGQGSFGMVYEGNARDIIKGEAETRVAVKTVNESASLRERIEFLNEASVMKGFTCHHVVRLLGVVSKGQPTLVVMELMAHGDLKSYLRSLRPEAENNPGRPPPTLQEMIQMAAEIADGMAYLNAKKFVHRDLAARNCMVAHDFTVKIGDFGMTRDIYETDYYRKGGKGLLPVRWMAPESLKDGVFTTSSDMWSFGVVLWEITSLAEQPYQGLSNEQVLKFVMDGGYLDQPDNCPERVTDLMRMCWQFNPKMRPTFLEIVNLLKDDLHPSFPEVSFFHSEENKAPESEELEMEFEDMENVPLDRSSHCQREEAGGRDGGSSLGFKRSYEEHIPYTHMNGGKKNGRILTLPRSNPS

Work on COc1cc(N2CCC(N3CCN(C)CC3)CC2)ccc1Nc1ncc(Cl)c(Nc2ccccc2P(C)(C)=O)n1 [BRIGATINIB] yielded an IC50 [1] of 24.9 nM, an IC50 (Insulin receptor) of 196 nM and an AUC (Rattus norvegicus [2]) of 2268 ng·h/mL. The t1/2 (Rattus norvegicus [3]) was 4.8 h, the Vdss (Rattus norvegicus [4]) was 7.8 L/kg and the Cmax [5] was 305 ng/mL. For the same compound, the AUC(0-inf) [6] was 3950 ng·h/mL, the Tmax [7] was 4 h and the half-life [8] was 204 min. For the same compound, the bioavailability [9] was 52%, the Cmax [10] was 448 ng/mL and the AUC(0-t) at 24 h [11] was 5770 ng·h/mL. It also gave a half-life [12] of 348 min, an Activity [13] of 1% and an Activity [14] of 7%. The Activity [15] was 39%, the TGI (KARPAS-299 [16]) was “Dose-dependent effect” and the Activity (KARPAS-299 [17]) was “Active”. For the same compound, the Activity (Mus musculus [18]) was “Non-toxic”, the Activity (NCI-H3122) was “Dose-dependent effect” and the Activity (Mus musculus [19]) was “Non-toxic”. The inhibition [20] was “inactive”, the inhibition [21] was “inactive” and the inhibition (Homo sapiens [22]) was “Active”. The inhibition (Homo sapiens [23]) was “Active”, the inhibition (Homo sapiens [24]) was “Active” and the fraction unbound [25] was 0.34. It also gave a fraction unbound [26] of 0.27, a fraction unbound [27] of 0.36 and a solubility [28] of 337 µg/mL (≈ 577 µM). For the same compound, the logD [29] was 3.02, the GI50 (cells [30]) was 10 nM and the IC50 (cells [30]) was 29 nM. For the same compound, the IC50 (cells [31]) was 3.19 µM, the inhibition in vivo at 10 mg/kg (animal or person [32]) was 50% and the inhibition in vivo at 25 mg/kg (animal or person [33]) was 12%. For the same compound, the inhibition in vivo at 50 mg/kg (animal or person [34]) was -11%.
